Legend:
Galectin-1 = Galectin-1 (Homo sapiens, UniProt P09382); assay: (§1) Fluorescence Polarization-Based Assay: Compounds 7, 15-19, and 22 were evaluated for their efficiency in inhibiting galectin-1 and galectin-3 in a known fluorescence polarization-based assay (Sörme et al., 2003a, 2004). All compounds were potent inhibitors of galectin-1 and galectin-3 with dissociation constant in the low μM or nM range. This evidences that a properly structured cyclohexane can mimic the subsite D-binding saccharide moiety, e.g. N-acetylglucosamine in the disaccharide N-acetyllactosamine.
Galectin-3 = Galectin-3 (Homo sapiens, UniProt P17931); assay: as §1
Galectin-3, sequence (P17931 whole entry): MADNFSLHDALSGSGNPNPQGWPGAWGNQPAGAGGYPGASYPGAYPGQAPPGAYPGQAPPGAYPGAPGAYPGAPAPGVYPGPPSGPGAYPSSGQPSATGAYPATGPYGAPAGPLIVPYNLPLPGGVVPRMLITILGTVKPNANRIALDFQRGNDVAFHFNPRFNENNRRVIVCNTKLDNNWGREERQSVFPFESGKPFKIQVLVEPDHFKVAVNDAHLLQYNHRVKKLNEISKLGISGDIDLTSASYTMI

Galectin-1, sequence (P09382 whole entry): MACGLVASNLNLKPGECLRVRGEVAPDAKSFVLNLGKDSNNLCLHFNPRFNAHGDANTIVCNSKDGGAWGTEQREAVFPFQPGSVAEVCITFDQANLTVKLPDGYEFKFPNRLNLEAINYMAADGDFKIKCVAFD

- Kd (Galectin-1): 65 µM
- Kd (Galectin-3): 59 µM
SMILES: CO[C@@H]1OC(CO)[C@@H](O[C@@H]2OC(CO)[C@H](O)[C@H](O)C2O)[C@H](O)C1NC(C)=O (some centres not stated)
